Holding throughout (format): cell-based
The subject of experiment [1] is Renal cancer cell line ACHN cell. Briefly: Growth inhibitory effect against cancer cell lines (3H-thymidine uptake), ACHN. The note with it: Homo sapiens, ACHN. The method, boiled down:
(§1)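 IC50 = concentration reducing ^3H-thymidine incorporation to 50% of DMSO control, measured in triplicate. Compound added 24 hrs after plating (1.0×10^4 cells/well); label (0.25 μCi/well) given after 18 hrs of treatment, followed by 6 hrs further culture and scintillation counting of harvested cells.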

Experiment [2] deals with colorectal cancer cell line HT-29 cells. Briefly: Growth inhibitory effect against cancer cell lines (3H-thymidine uptake), HT-29. The note with it: Homo sapiens, HT-29, inhibition of 3H-thymidine uptake; test substance 18 hrs, then 3H-thymidine 6 hrs; triplicate. The procedure, abridged: as §1
The subject of experiment [3] is p15 protein. Kind of experiment: Evaluation of p15 induction activity (Western blotting). The following applies: test substance 0.1 μM, 24 hrs, ACHN cells or HT-29 cells, compared to DMSO, n=2. The method, boiled down:
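p15 protein quantified by densitometry of anti-p15 Western blots (10 μg protein per lane, mean of n=2). Samples came from HT-29 or ACHN cells given 0.1 μM compound for 24 h after 24 h plating, with DMSO as control.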

For experiment [4], the system named is p27 protein. Briefly: p27 protein induction test (Western blotting). The following applies: test substance (0.1 1M), 24 hrs, ACHN cells or HT-29 cells, compared to DMSO, n=2. The method, boiled down:
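p27 level taken as anti-p27 band density by densitometry, mean of n=2, with DMSO as control. Samples loaded at amount equivalent to 10 μg BSA. Cells were ACHN or HT-29, exposed 24 h to […] test substance after 24 h pre-culture.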
(In western blotting, separated proteins are transferred to a membrane and probed.)

Bounds are passed on as bounds.

In general, IC50 refers to the concentration needed to halve the response being measured. Lower therefore signals inhibition by little substance. The term fold induction denotes the ratio of treated to control signal. Read a high fold induction as a large rise in signal.

Turning to `CCCCC(=O)NCCC(=O)Nc1cccc(-n2c(=O)n(C3CC3)c(=O)c3c(Nc4ccc(I)cc4F)n(C)c(=O)c(C)c32)c1` [Example 4-12], the IC50 in experiment [1] was 10 to 100 nM; in experiment [2], less than 10 nM. In addition, the fold induction at 0.1 µM in experiment [3] and in experiment [4] was no less than 1.5 in each case.

`CCn1c(=O)c2c(Nc3ccc(I)cc3F)n(C)c(=O)c(C)c2n(-c2cccc(NC(C)=O)c2)c1=O` [Example 4-21]: the concentration for half-maximal inhibition (IC50) was 10 to 100 nM in experiment [1] and less than 10 nM in experiment [2]. The fold induction at 0.1 µM in experiment [3] and in experiment [4] was no less than 1.5 in each case.

On to `C#Cc1ccc(Nc2c3c(=O)n(CC)c(=O)n(-c4cccc(NC(C)=O)c4)c3c(C)c(=O)n2C)c(F)c1` [Example 4-43], for which the half-maximal inhibitory concentration (IC50) fell in the range of 100 to 1000 nM in experiment [1] and 10 to 100 nM in experiment [2]. In addition, the fold induction at 0.1 µM in experiment [3] and in experiment [4] was no less than 1.5 throughout.

For the molecule `CCc1ccc(Nc2c3c(=O)n(CC)c(=O)n(-c4cccc(NC(C)=O)c4)c3c(C)c(=O)n2C)c(F)c1` [Example 4-45], the values for the IC50 in experiment [1] and in experiment [2] were 100 to 1000 nM and 10 to 100 nM, respectively. The fold induction at 0.1 µM in experiment [3] and in experiment [4] was no less than 1.5 in each case.

As to `C#Cc1ccc(Nc2c3c(=O)n(C)c(=O)n(-c4cccc(NC(C)=O)c4)c3c(C)c(=O)n2C)c(F)c1` [Example 4-48], the IC50 in experiment [1] is 10 to 100 nM; in experiment [2], less than 10 nM. Further, the fold induction at 0.1 µM in experiment [3] and in experiment [4] was no less than 1.5 throughout.

`CCc1ccc(Nc2c3c(=O)n(C)c(=O)n(-c4cccc(NC(C)=O)c4)c3c(C)c(=O)n2C)c(F)c1` [Example 4-50]: the IC50 in experiment [1] lay within 100 to 1000 nM; in experiment [2], 10 to 100 nM. In addition, the fold induction at 0.1 µM in experiment [3] and in experiment [4] was no less than 1.5 in each case.

Consider `CCc1ccc(Nc2c3c(=O)n(C)c(=O)n(-c4cccc(NS(C)(=O)=O)c4)c3c(C)c(=O)n2C)c(F)c1` [Example 4-51], for which the IC50 in experiment [1] is 10 to 100 nM; in experiment [2], less than 10 nM. Further, the fold induction at 0.1 µM in experiment [3] and in experiment [4] was no less than 1.5 throughout.

As to `CCCc1ccc(Nc2c3c(=O)n(C4CC4)c(=O)n(-c4cccc(NC(C)=O)c4)c3c(C)c(=O)n2C)c(F)c1` [Example 4-53], the half-maximal inhibitory concentration (IC50) in experiment [1] lay within 100 to 1000 nM; in experiment [2], 10 to 100 nM. Further, the fold induction at 0.1 µM in experiment [3] and in experiment [4] was no less than 1.5 in each case.

Take `Cc1c(=O)n(C)c(Nc2ccc(I)cc2F)c2c(=O)n(C3CC3)c(=O)n(-c3cccc(S(C)(=O)=O)c3)c12` [Example 4-55]: the IC50 in experiment [1] was 10 to 100 nM; in experiment [2] it was less than 10 nM. The fold induction at 0.1 µM in experiment [3] and in experiment [4] was no less than 1.5 throughout.

In the case of `CC(=O)Nc1cccc(-n2c(=O)n(C3CC3)c(=O)c3c(Nc4ccc(C)cc4F)n(C)c(=O)c(C)c32)c1` [Example 4-56], the half-inhibitory concentration (IC50) is 100 to 1000 nM in experiment [1] and 10 to 100 nM in experiment [2]. Besides, the fold induction at 0.1 µM in experiment [3] and in experiment [4] was no less than 1.5 throughout.

Consider `CCS(=O)(=O)c1cccc(-n2c(=O)n(C3CC3)c(=O)c3c(Nc4ccc(I)cc4F)n(C)c(=O)c(C)c32)c1` [Example 4-58], for which the concentration for half-maximal inhibition (IC50) in experiment [1] is 10 to 100 nM; in experiment [2], less than 10 nM. Moreover, the fold induction at 0.1 µM in experiment [3] and in experiment [4] was no less than 1.5 throughout.

On to `Cc1c(=O)n(C)c(Nc2ccc(I)cc2F)c2c(=O)n(C3CC3)c(=O)n(-c3cccc(NS(=O)(=O)N4CCCCC4)c3)c12` [Example 4-59], for which the IC50 is 10 to 100 nM in experiment [1] and less than 10 nM in experiment [2]. Besides, the fold induction at 0.1 µM in experiment [3] and in experiment [4] was no less than 1.5 throughout.

Consider `CCC(=O)Nc1cccc(-n2c(=O)n(C3CC3)c(=O)c3c(Nc4ccc(I)cc4F)n(C)c(=O)c(C)c32)c1` [Example 4-60], for which the IC50 in experiment [1] was 10 to 100 nM; in experiment [2] it was less than 10 nM. Besides, the fold induction at 0.1 µM in experiment [3] and in experiment [4] was no less than 1.5 in each case.

As to `CC(=O)Nc1cccc(-n2c(=O)n(C3CC3)c(=O)c3c(Nc4ccc(N(C)C)cc4F)n(C)c(=O)c(C)c32)c1` [Example 4-61], the IC50 in experiment [1] and in experiment [2] was 10 to 100 nM throughout. Besides, the fold induction at 0.1 µM in experiment [3] and in experiment [4] was no less than 1.5 each time.

As for `Cc1c(=O)n(C)c(Nc2ccc(I)cc2F)c2c(=O)n(C3CC3)c(=O)n(-c3cc(Cl)cc(NS(C)(=O)=O)c3)c12` [Example 4-64], the IC50 in experiment [1] lay within 100 to 1000 nM; in experiment [2] it was 10 to 100 nM. In addition, the fold induction at 0.1 µM in experiment [3] and in experiment [4] was no less than 1.5 in each case.

As for `CC(=O)Nc1ccc(-n2c(=O)n(C3CC3)c(=O)c3c(Nc4ccc(I)cc4F)n(C)c(=O)c(C)c32)cc1` [Example 4-66], the values for the IC50 in experiment [1] and in experiment [2] were 100 to 1000 nM and 10 to 100 nM, respectively. For the same molecule, the fold induction at 0.1 µM in experiment [3] and in experiment [4] was no less than 1.5 each time.

On to `CC(=O)Nc1cccc(-n2c(=O)n(C3CC3)c(=O)c3c(Nc4ccc(C5CC5)cc4F)n(C)c(=O)c(C)c32)c1` [Example 4-67], for which the 50% inhibitory concentration (IC50) was 10 to 100 nM in experiment [1] and less than 10 nM in experiment [2]. In addition, the fold induction at 0.1 µM in experiment [3] and in experiment [4] was no less than 1.5 in each case.

With `C#Cc1ccc(Nc2c3c(=O)n(C4CC4)c(=O)n(-c4ccc(NC(C)=O)cc4)c3c(C)c(=O)n2C)c(F)c1` [Example 4-71], the IC50 in experiment [1] was 100 to 1000 nM; in experiment [2], 10 to 100 nM. For the same molecule, the fold induction at 0.1 µM in experiment [3] and in experiment [4] was no less than 1.5 in each case.

As for `Cc1c(=O)n(C)c(Nc2ccc(I)cc2F)c2c(=O)n(C3CC3)c(=O)n(-c3ccccc3)c12` [Example 4-72], the IC50 in experiment [1] is 10 to 100 nM; in experiment [2], less than 10 nM. The fold induction at 0.1 µM in experiment [3] and in experiment [4] was no less than 1.5 in each case.

Regarding `Cc1c(=O)n(C)c(Nc2ccc(I)cc2F)c2c(=O)n(C3CC3)c(=O)n(-c3cccc(NC(=O)c4c[nH]cn4)c3)c12` [Example 4-73], the concentration for half-maximal inhibition (IC50) was 10 to 100 nM in experiment [1] and less than 10 nM in experiment [2]. Besides, the fold induction at 0.1 µM in experiment [3] and in experiment [4] was no less than 1.5 throughout.

For the molecule `CONC(=O)Nc1cccc(-n2c(=O)n(C3CC3)c(=O)c3c(Nc4ccc(I)cc4F)n(C)c(=O)c(C)c32)c1` [Example 4-74], the values for the IC50 in experiment [1] and in experiment [2] were 10 to 100 nM and less than 10 nM, respectively. Further, the fold induction at 0.1 µM in experiment [3] and in experiment [4] was no less than 1.5 in each case.

For the molecule `C#Cc1ccc(Nc2c3c(=O)n(C4CC4)c(=O)n(-c4ccc(NS(C)(=O)=O)cc4)c3c(C)c(=O)n2C)c(F)c1` [Example 4-76], the half-inhibitory concentration (IC50) in experiment [1] is 10 to 100 nM; in experiment [2], less than 10 nM. Further, the fold induction at 0.1 µM in experiment [3] and in experiment [4] was no less than 1.5 each time.

Consider `CCS(=O)(=O)Nc1ccc(-n2c(=O)n(C3CC3)c(=O)c3c(Nc4ccc(I)cc4F)n(C)c(=O)c(C)c32)cc1` [Example 4-77], for which the IC50 in experiment [1] was 10 to 100 nM; in experiment [2], less than 10 nM. Further, the fold induction at 0.1 µM in experiment [3] and in experiment [4] was no less than 1.5 each time.

Turning to `CCc1ccc(Nc2c3c(=O)n(C4CC4)c(=O)n(-c4ccc(NS(C)(=O)=O)cc4)c3c(C)c(=O)n2C)c(F)c1` [Example 4-78], the concentration for half-maximal inhibition (IC50) in experiment [1] lay in the range of 100 to 1000 nM; in experiment [2], 10 to 100 nM. The fold induction at 0.1 µM in experiment [3] and in experiment [4] was no less than 1.5 in each case.

Turning to `CON(C)C(=O)Nc1cccc(-n2c(=O)n(C3CC3)c(=O)c3c(Nc4ccc(I)cc4F)n(C)c(=O)c(C)c32)c1` [Example 4-80], the IC50 in experiment [1] is 10 to 100 nM; in experiment [2], less than 10 nM. Further, the fold induction at 0.1 µM in experiment [3] and in experiment [4] was no less than 1.5 each time.

Take `Cc1c(=O)n(C)c(Nc2ccc(I)cc2F)c2c(=O)n(C3CC3)c(=O)n(-c3cccc(NC(N)=O)c3)c12` [Example 4-81]: the concentration for half-maximal inhibition (IC50) in experiment [1] is 10 to 100 nM; in experiment [2], less than 10 nM. Further, the fold induction at 0.1 µM in experiment [3] and in experiment [4] was no less than 1.5 in each case.

As to `Cc1c(=O)n(C)c(Nc2ccc(I)cc2F)c2c(=O)n(C3CC3)c(=O)n(-c3ccc4c(c3)NC(=O)C4)c12` [Example 4-88], the concentration for half-maximal inhibition (IC50) in experiment [1] and in experiment [2] was less than 10 nM each time. Moreover, the fold induction at 0.1 µM in experiment [3] and in experiment [4] was no less than 1.5 throughout.

On to `Cc1c(=O)n(C)c(Nc2ccc(I)cc2F)c2c(=O)n(C3CC3)c(=O)n(-c3cccc(NC(=O)c4cn[nH]c4)c3)c12` [Example 4-89], for which the half-inhibitory concentration (IC50) in experiment [1] fell in the range of 100 to 1000 nM; in experiment [2], 10 to 100 nM. Further, the fold induction at 0.1 µM in experiment [3] and in experiment [4] was no less than 1.5 each time.

Take `Cc1c(=O)n(C)c(Nc2ccc(I)cc2F)c2c(=O)n(C3CC3)c(=O)n(-c3ccc(C(=O)O)cc3)c12` [Example 4-90]: the 50% inhibitory concentration (IC50) lay in the range of 100 to 1000 nM in experiment [1] and 10 to 100 nM in experiment [2]. The fold induction at 0.1 µM in experiment [3] and in experiment [4] was no less than 1.5 throughout.

In the case of `Cc1c(=O)n(C)c(Nc2ccc(I)cc2F)c2c(=O)n(C3CC3)c(=O)n(-c3ccc(C(N)=O)cc3)c12` [Example 4-91], the IC50 in experiment [1] was 10 to 100 nM; in experiment [2], less than 10 nM. The fold induction at 0.1 µM in experiment [3] and in experiment [4] was no less than 1.5 each time.
